Laboratory results reported in patent US10450316B2, “Certain protein kinase inhibitor” (Chongqing Fochon Pharmaceutical Co., Ltd., priority 2015, dated 2019).

System: BE(2)-C cell
Experiment: Cell proliferation assay (MTS) in BE(2)-C cells
Type: cell-based
Conditions: Homo sapiens, inhibition of BE(2)-C cell proliferation, 48 h
Summary of the method: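 BE(2)-C cells (3000/well, DMEM + 10% FBS) were treated for 48 h at 37 °C with compound at 1.5–10000 nM in nine concentrations. Viability was measured by MTS (2 h, stopped with SDS) at 490/650 nm, and IC50 was calculated from the dose-response.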

Compound | IC50 [µM]
CCN1CC2(C1)CN(Cc1ccc(Nc3ncc(F)c(-c4cc(F)c5nc6n(c5c4)[C@H](C(F)(F)F)CC6)n3)nc1)C2 [Example 69, (S)-N-(5-((6-ethyl-2,6-diazaspiro[3.3]heptan-2-yl)methyl)pyridin-2-yl)-5-fluoro-4-(5-fluoro-1-(trifluoromethyl)-2,3-dihydro-1H-benzo[d]pyrrolo[1,2-a]imidazol-7-yl)pyrimidin-2-amine] | 0.01 to 0.1
CN1CC2CCC(C1)N2Cc1ccc(Nc2ncc(F)c(-c3cc(F)c4nc5n(c4c3)[C@H](CF)CC5)n2)nc1 [Example 33, 5-fluoro-4-((S)-5-fluoro-1-(fluoromethyl)-2,3-dihydro-1H-benzo[d]pyrrolo[1,2-a]imidazol-7-yl)-N-(5-((3-methyl-3,8-diazabicyclo[3.2.1]octan-8-yl)methyl)pyridin-2-yl)pyrimidin-2-amine] | 0.01 to 0.1
Fc1cnc(Nc2ccc(CN3CCN4CCOC[C@H]4C3)cn2)nc1-c1cc(F)c2nc3n(c2c1)C1(CC3)CC1 [Example 148, (R)-5-fluoro-4-(5-fluoro-2,3-dihydrospiro[benzo [d]pyrrolo[1,2-a]imidazole-1,1′-cyclopropan]-7-yl)-N-(5-((hexahydropyrazino[2,1-c][1,4]oxazin-8(1H)-yl)methyl)pyridin-2-yl)pyrimidin-2-amine] | 0.01 to 0.1
Fc1cnc(Nc2ccc(CN3CCNCC3)cn2)nc1-c1cc(F)c2nc3n(c2c1)[C@H](C(F)F)CC3 [Example 10, (S)-4-(1-(difluoromethyl)-5-fluoro-2,3-dihydro-1H-benzo[d]pyrrolo[1,2-a]imidazol-7-yl)-5-fluoro-N-(5-(piperazin-1-ylmethyl)pyridin-2-yl)pyrimidin-2-amine] | > 0.1
CN1CC2CN(Cc3ccc(Nc4ncc(F)c(-c5cc(F)c6nc7n(c6c5)[C@H](C(F)(F)F)CC7)n4)nc3)CC2C1 (stereo partly drawn) [Example 74, 5-fluoro-4-((S)-5-fluoro-1-(trifluoromethyl)-2,3-dihydro-1H-benzo[d]pyrrolo[1,2-a]imidazol-7-yl)-N-(5-((5-methylhexahydropyrrolo[3,4-c]pyrrol-2(1H)-yl)methyl)pyridin-2-yl)pyrimidin-2-amine] | 0.01 to 0.1
CN1C2CCC1CN(Cc1ccc(Nc3ncc(F)c(-c4cc(F)c5nc6n(c5c4)C(C)(C)CC6)n3)nc1)C2 [Example 130, 5-fluoro-4-(5-fluoro-1,1-dimethyl-2,3-dihydro-1H-benzo[d]pyrrolo[1,2-a]imidazol-7-yl)-N-(5-((8-methyl-3,8-diazabicyclo[3.2.1]octan-3-yl)methyl)pyridin-2-yl)pyrimidin-2-amine] | 0.01 to 0.1
CCN1CC2CCC(C1)N2Cc1ccc(Nc2ncc(F)c(-c3cc(F)c4nc5n(c4c3)[C@H](C(F)F)CC5)n2)nc1 [Example 56, 4-((S)-1-(difluoromethyl)-5-fluoro-2,3-dihydro-1H-benzo[d]pyrrolo[1,2-a]imidazol-7-yl)-N-(5-((3-ethyl-3,8-diazabicyclo[3.2.1]octan-8-yl)methyl)pyridin-2-yl)-5-fluoropyrimidin-2-amine] | 0.01 to 0.1
C[C@@H]1CCc2nc3c(F)cc(-c4nc(Nc5ccc(CN6CC7(CN(C)C7)C6)cn5)ncc4F)cc3n21 [Example 96, (R)-5-fluoro-4-(5-fluoro-1-methyl-2,3-dihydro-1H-benzo[d]pyrrolo[1,2-a]imidazol-7-yl)-N-(5-((6-methyl-2,6-diazaspiro[3.3]heptan-2-yl)methyl)pyridin-2-yl)pyrimidin-2-amine] | > 0.1
CN1C[C@@H]2C[C@H]1CN2Cc1ccc(Nc2ncc(F)c(-c3cc(F)c4nc5n(c4c3)C3(CC5)CC3)n2)nc1 [Example 136, 5-fluoro-4-(5-fluoro-2,3-dihydrospiro[benzo[d]pyrrolo[1,2-a]imidazole-1,1′-cyclopropan]-7-yl)-N-(5-(((1S,4S)-5-methyl-2,5-diazabicyclo[2.2.1]heptan-2-yl)methyl)pyridin-2-yl)pyrimidin-2-amine] | > 0.1
Fc1cnc(Nc2ccc(CN3CCN4CCC[C@@H]4C3)cn2)nc1-c1cc(F)c2nc3n(c2c1)[C@H](C(F)F)CC3 [Example 41, 4-((S)-1-(difluoromethyl)-5-fluoro-2,3-dihydro-1H-benzo[d]pyrrolo[1,2-a]imidazol-7-yl)-5-fluoro-N-(5-(((R)-hexahydropyrrolo[1,2-a]pyrazin-2(1H)-yl)methyl)pyridin-2-yl)pyrimidin-2-amine] | 0.01 to 0.1
CC1(C)CCc2nc3ncc(-c4cc(Nc5ccc(CN6C7CCC6CNC7)cn5)ncc4F)cc3n21 [Example 167, N-(5-((3,8-diazabicyclo[3,2,1]octan-8-yl)methyl)pyridin-2-yl)-4-(6,6-dimethyl-7,8-dihydro-6H-pyrrolo[1′,2′:1,2]imidazo[4,5-b]pyridin-3-yl)-5-fluoropyridin-2-amine] | 0.01 to 0.1
CCN1CCN(Cc2ccc(Nc3ncc(F)c(-c4cc(F)c5nc6n(c5c4)[C@H](C(F)(F)F)CC6)n3)nc2)CC1 [Example 18, (S)—N-(5-((4-ethylpiperazin-1-yl)methyl)pyridin-2-yl)-5-fluoro-4-(5-fluoro-1-(trifluoromethyl)-2,3-dihydro-1H-benzo[d]pyrrolo[1,2-a]imidazol-7-yl)pyrimidin-2-amine] | 0.01 to 0.1
CCN1CCN(Cc2ccc(Nc3ncc(F)c(-c4cc(F)c5nc6n(c5c4)[C@H](CF)CC6)n3)nc2)CC1 [Example 6, (S)—N-(5-((4-ethylpiperazin-1-yl)methyl)pyridin-2-yl)-5-fluoro-4-(5-fluoro-1-(fluoromethyl)-2,3-dihydro-1H-benzo[d]pyrrolo[1,2-a]imidazol-7-yl)pyrimidin-2-amine] | > 0.1
CCN1CCC2(CC1)CN(Cc1ccc(Nc3ncc(F)c(-c4cc(F)c5nc6n(c5c4)[C@H](C(F)(F)F)CC6)n3)nc1)C2 [Example 63, (S)-N-(5-((7-ethyl-2,7-diazaspiro[3.5]nonan-2-yl)methyl)pyridin-2-yl)-5-fluoro-4-(5-fluoro-1-(trifluoromethyl)-2,3-dihydro-1H-benzo[d]pyrrolo[1,2-a]imidazol-7-yl)pyrimidin-2-amine] | 0.01 to 0.1
CN1CC2CN(Cc3ccc(Nc4ncc(F)c(-c5cc(F)c6nc7n(c6c5)[C@H](C(F)F)CC7)n4)nc3)CC2C1 (stereo partly drawn) [Example 49, 4-((S)-1-(difluoromethyl)-5-fluoro-2,3-dihydro-1H-benzo[d]pyrrolo[1,2-a]imidazol-7-yl)-5-fluoro-N-(5-((5-methylhexahydropyrrolo[3,4-c]pyrrol-2(1H)-yl)methyl)pyridin-2-yl)pyrimidin-2-amine] | 0.01 to 0.1
FC[C@@H]1CCc2nc3c(F)cc(-c4nc(Nc5ccc(CN6CCNCC6)cn5)ncc4F)cc3n21 [Example 4, (S)-5-fluoro-4-(5-fluoro-1-(fluoromethyl)-2,3-dihydro-1H-benzo[d]pyrrolo[1,2-a]imidazol-7-yl)-N-(5-(piperazin-1-ylmethyl)pyridin-2-yl)pyrimidin-2-amine] | > 0.1
CCN1CCN(c2ccc(Nc3ncc(F)c(-c4cc(F)c5nc6n(c5c4)[C@H](C(F)F)CC6)n3)nc2)CC1 [Example 40, (S)-4-(1-(difluoromethyl)-5-fluoro-2,3-dihydro-1H-benzo[d]pyrrolo[1,2-a]imidazol-7-yl)-N-(5-(4-ethylpiperazin-1-yl)pyridin-2-yl)-5-fluoropyrimidin-2-amine] | > 1
CN1C[C@@]2(C)CN(Cc3ccc(Nc4ncc(F)c(-c5cc(F)c6nc7n(c6c5)C5(CC7)CC5)n4)nc3)C[C@@]2(C)C1 [Example 139, 5-fluoro-4-(5-fluoro-2,3-dihydrospiro[benzo[d]pyrrolo[1,2-a]imidazole-1,1′-cyclopropan]-7-yl)-N-(5-(((3aR,6aS)-3a,5,6a-trimethylhexahydro-pyrrolo[3,4-c]pyrrol-2(1H)-yl)methyl)pyridin-2-yl)pyrimidin-2-amine] | > 1
CN1CCC2(CC1)CN(Cc1ccc(Nc3ncc(F)c(-c4cc(F)c5nc6n(c5c4)[C@H](C(F)F)CC6)n3)nc1)C2 [Example 43, (S)-4-(1-(difluoromethyl)-5-fluoro-2,3-dihydro-1H-benzo[d]pyrrolo[1,2-a]imidazol-7-yl)-5-fluoro-N-(5-((7-methyl-2,7-diazaspiro[3.5]nonan-2-yl)methyl)pyridin-2-yl)pyrimidin-2-amine] | 0.01 to 0.1
CN1CC2(C1)CN(Cc1ccc(Nc3ncc(F)c(-c4cc(F)c5nc6n(c5c4)[C@H](CF)CC6)n3)nc1)C2 [Example 24, (S)-5-fluoro-4-(5-fluoro-1-(fluoromethyl)-2,3-dihydro-1H-benzo[d]pyrrolo[1,2-a]imidazol-7-yl)-N-(5-((6-methyl-2,6-diazaspiro[3.3]heptan-2-yl)methyl)pyridin-2-yl)pyrimidin-2-amine] | > 0.1
C[C@@H]1CCc2nc3c(F)cc(-c4nc(Nc5ccc(CN6CCNCC6)cn5)ncc4F)cc3n21 [Example 82, (R)-5-fluoro-4-(5-fluoro-1-methyl-2,3-dihydro-1H-benzo[d]pyrrolo[1,2-a]imidazol-7-yl)-N-(5-(piperazin-1-ylmethyl)pyridin-2-yl)pyrimidin-2-amine] | 0.01 to 0.1
CN1CCN(Cc2ccc(Nc3ncc(F)c(-c4cc(F)c5nc6n(c5c4)[C@@H](C(F)F)CC6)n3)nc2)CC1 [Example 153, (R)-4-(1-(difluoromethyl)-5-fluoro-2,3-dihydro-1H-benzo[d]pyrrolo[1,2-a]imidazol-7-yl)-5-fluoro-N-(5-((4-methylpiperazin-1-yl)methyl)pyridin-2-yl)pyrimidin-2-amine] | > 1
CN1CCC2(CC1)CCN(Cc1ccc(Nc3ncc(F)c(-c4cc(F)c5nc6n(c5c4)C(C)(C)CC6)n3)nc1)CC2 [Example 121, 5-fluoro-4-(5-fluoro-1,1-dimethyl-2,3-dihydro-1H-benzo[d]pyrrolo[1,2-a]imidazol-7-yl)-N-(5-((9-methyl-3,9-diazaspiro[5.5]undecan-3-yl)methyl)pyridin-2-yl)pyrimidin-2-amine] | > 0.1
CCN1CCN(Cc2ccc(Nc3ncc(F)c(-c4cc(F)c5nc6n(c5c4)[C@H](COC)CC6)n3)nc2)CC1 [Example 9, (S)—N-(5-((4-ethylpiperazin-1-yl)methyl)pyridin-2-yl)-5-fluoro-4-(5-fluoro-1-(methoxymethyl)-2,3-dihydro-1H-benzo[d]pyrrolo[1,2-a]imidazol-7-yl)pyrimidin-2-amine] | > 0.1
